Test results reported in US9919027B2, “Lipid nanoparticle of polymyxin” (priority 2013, dated 2018).

What was measured:
[1] = tested on: 31 P. aeruginosa strains obtained from 31 patients with cystic fibrosis; assay: In vitro minimum inhibitory concentration (MIC) in MHBCA broth; assay type: cell-based; conditions: 24 hours at 37° C.
Protocol: The antibacterial action of an antibiotic can be measured by means of the minimum inhibitory concentration, which consists of the concentration of the antibiotic required to prevent bacterial growth after the incubation of 10^4-5 bacteria in rapid growth phase, in an aerobic, protein-free medium with pH 7.2 for an incubation period of one night. This term is used to determine the sensitivity of the bacteria to a specific antibiotic agent.
100 μl of a concentration of 10^4 Colony Forming Units (CFU)/ml of 31 P. aeruginosa strains obtained from 31 patients with cystic fibrosis, 13 strains of which were mucus producers, were incubated for 24 hours at 37° C. in a Mueller Hinton broth, cation-adjusted (MHBCA) medium, corresponding to between 20 mg and 25 mg per liter of calcium and between 10 mg and 12.5 mg per liter of magnesium, assuring the reproducibility of the results for P. aeruginosa, in the presence of colistimethate sodium, and nanoparticles obtained according to Examples 1b and 2b, at different concentrations (less than 0.25, 0.25, 0.5, 1, 2, 4, 8 and 32 μg/ml).

[2] = tested on: mucosa producing P. aeruginosa strain; assay: In vivo efficacy in CD1 mice with pulmonary infection, lung bacteria count; conditions: infected CD1 mice; intratracheal, once a day for three days; 3000 IU (0.24 mg colistimethate sodium equivalent)
Protocol: To carry out the in vivo toxicity and efficacy assays of the nanoparticles of the present invention, it was necessary to establish a rodent infection model. An intratracheal administration of different concentrations of mucosa producing P. aeruginosa included in microspheres (Concentration 1: 5×10^4 CFU, Concentration 2: 2.4×10^7 CFU, and Concentration 3: 3.89×10^10), obtained from a patient with cystic fibrosis, suspended in PBS, in CD1 mice was carried out, administering a different concentration to each rodent, to establish the optimum concentration for generating a suitable pulmonary infection, capable of making the rodents sick without causing their immediate death.
Five mice were used as the control group and 64 mice infected with the inoculation of the bacteria of a mucosa producing P. aeruginosa strain, at a concentration of 2.4×10^7 CFU, as explained in Example 8, were used. […] The amounts were calculated by adjusting the dose recommended in humans with respect to the weight of the mice (3000 IU, equivalent to 0.24 mg of free colistimethate sodium, equivalent to 2.88 mg of the nanoparticles according to Example 1b and 2.52 mg of nanoparticles according to Example 2b). […]

H441 cell line = assay: Cell viability IC50 (CCK-8) as toxicity marker, H441; assay type: cell-based, human; conditions: 24 h incubation, triplicate
Protocol: (§1) The median inhibition concentration value (IC50) refers to the concentration of an assayed sample required to inhibit the growth of the 50% of the cell population. In this case IC50 value was estimated as a toxicity marker, as the cell viability assay is run under human cell (A549 and H441 cell lines, which are immortalised lines derived from human adenocarcinomic epithelial cell). Cells (at a density of 12,000 cells per well in a 96-well plate) were grown in Dulbecco's Modified Eagle Medium (DMEM) supplemented with 10% foetal bovine serum (FBS), 1% L-glutamine, 1% penicillin/streptomycin solution and 1% of Minimum Essential Medium non-essential amino acids 100× (MEM-NEAA) at 37° C. and 5% CO2 for 24 hours. Decreasing concentrations of nanoparticles 1b and 2b and free colistimethate sodium, starting from 10 mg/ml to 0.07812 mg/ml were added to the cells, diluted in DMEM supplemented with 0.5% serum and incubated at 37°±2° C. and 5% CO2 for 24 h. Cell viability was assessed by means of the Cell Counting Kit 8 after a washing step. With this aim, 10% of CCK-8 reagent was added to each well and incubated in a wet chamber for 4 hours at 37°±2° C. and 5% CO2. Subsequently, the absorbance was read at 450 nm and at 650 nm as the reference wavelength. The absorbance was directly proportional to the number of living cells in culture. […]

A549 cell line = assay: Cell viability IC50 (CCK-8) as toxicity marker, A549; assay type: cell-based, human; conditions: 24 h incubation, triplicate
Protocol: as §1

Question: Which MIC ([1]; obtained for 16% of the 31 strains) does the source give for colistimethate sodium here?
Answer: Its MIC is 0.5 µg/mL.

Question: And the MIC ([1]; obtained for 25% of the 31 strains)?
Answer: Its MIC is 1 µg/mL.

Question: And the MIC ([1]; obtained for 48% of the 31 strains)?
Answer: The MIC was 2 µg/mL.

Question: And the MIC ([1]; obtained for the remaining strains)?
Answer: Its MIC is 4 µg/mL.

Question: What about the “Bacterial count (log CFU for every 2 lungs)” value [2] of the same substance?
Answer: Its value is 4.9 ± 0.2 log CFU for every 2 lungs.

Question: And the “IC50 (median inhibition concentration, cell viability)” value (H441 cell line)?
Answer: Its value is 6.58 ± 0.72 µg/mL.

Question: What about the “IC50 (median inhibition concentration, cell viability)” value (A549 cell line) of the same substance?
Answer: Its value is 101.27 ± 14.44 µg/mL.
